# Values joined by “and” are separate entries in the source; they are usually repeats but may differ in a detail not shown here. Identical values can stand only once. “Also recorded” adds a separate entry of the source. Square brackets hold non-standard residues; d marks the D form. Peptide text beside a SMILES is read from it.
# How the values were obtained:
# [1] = test system: HSV-1 in THP1 cells; assay: HSV-1(UL5) mRNA by qPCR (virus infection of cells); type: cell-based, herpes simplex virus-1; design: key to HSV-1(UL5) mRNA, qPCR, Fig. 5d / HSV-1(UL5) mRNA (Fig. S8e): relative mRNA level, target CT normalized to GAPDH CT; details: for HSV-1(UL5) mRNA, qPCR, Fig. 5d: XQ2 10 μM
# Method: (§1) The indicated cells were stimulated with either ISD (Sangon Biotech), HSV-1 (Provided by Dr. Zhengfan Jiang), HSV60mer (Sangon Biotech), SATE-cddA[70], 2’3’-cGAMP (Invivogen, Cat# tlrl-nacga23-1), ADU-S100 (MedChemExpress, Cat# HY-12885A) or Poly(I:C) (Invivogen, Cat# tlrl-pic) after XQ2 or XQ2B treatment. Total RNA was isolated from indicated cells that incubated with the drugs for indicated time or mice tissues by using NucleoZOL reagent (MACHEREY-NAGEL) according to the manufacturer’s instructions. The quantifications of mRNA levels were carried out by real-time PCR using a PerfectStart® Uni RT&qPCR Kit (TransGen Biotech) on the QuantStudio 5 qPCR machine (Applied Biosystems). Samples were carried out in triplicate and the target CT values were normalized to GAPDH CT values. Primers of qPCR used in this study can be found in Supplementary Table S2.
# [2] = test system: THP1 cells stimulated with poly (I: C) (TLR3 and RIG-I/MDA-5 pathways); assay: qPCR of IFNB1 mRNA in THP1 cells stimulated by poly (I: C); type: cell-based, human
# Text: We next evaluated the inhibitory effect of XQ2 against cGAS in murine fibroblast L929 cells, macrophage RAW264.7 cells and primary bone marrow-derived macrophages (BMDMs) from C57BL/6 mice.
# as §1
# [3] = test system: macrophage RAW264.7 cells; assay: qPCR of Ifnb1/Cxcl10/Il6 mRNA in RAW264.7 cells (ISD or HSV-1); type: cell-based, mouse; design: key to Ifnb1 mRNA (Fig. S2c) / Cxcl10 mRNA (Fig. S2c) / Ifnb1 mRNA (Fig. S2d) / Cxcl10 mRNA (Fig. S2d) / Ifnb1 mRNA (Fig. S7g) / Cxcl10 mRNA (Fig. S7g) / Il6 mRNA (Fig. S7g): mRNA level normalized to GAPDH (relative expression)
# Method: as §1, with “S2. […]” for “S2.”
# (c) L929, p = 0.0005 (Ifnb1),
# BMDMs, p = 0.0001 (Ifnb1), p < 0.0001 (Cxcl10).
# representative of three independent experiments in (a-g). (Data are presented as mean ± SD, n = 3 independent
# Source data are provided as a Source Data file.
# [4] = test system: dsDNA-stimulated THP1 cells; assay: qPCR of IFNB1/CXCL10/IL6 mRNA in THP1 cells stimulated by dsDNA (ISD, HSV60mer); type: cell-based, human; details: for IFNB1 mRNA, qPCR, Fig. 2b: 10 μM
# Text: To screen direct cGAS inhibitors targeting protein-DNA interface from our developed focused library of macrocyclic peptides, we applied an RNA-based fluorescent biosensor for 2’,3’-cGAMP to detect cGAS activity in vitro (Supplementary Fig. 1a)[49]. The formation of 2’,3’-cGAMP from ATP and GTP was catalyzed by recombinant human cGAS enzyme (hcGAS-ΔN, residues 147–522, Supplementary Fig. 1b) in the presence of ISD (interferon stimulatory DNA, a 45-bp dsDNA), which was readily quantified by the RNA-based fluorescent biosensor and was further confirmed by ion exchange chromatography (Supplementary Fig. 1c). […] Subsequently, a total of 90 macrocyclic peptides were screened at a concentration of 20 μM (Fig. 1a and Supplementary Fig. 1e), and 4 hits (XQ2, XQ8, XQ19, and XQ46) were obtained for further testing at a cut-off of 40% inhibition (Supplementary Table 1). To evaluate the inhibitory effect of the hits against cGAS in cells, we employed real-time quantitative PCR (qPCR) to examine mRNA levels of IFNΒ1 in THP1 cells. The reported cGAS inhibitor RU.521 was used as the positive control, and the non-active peptide XQ28 in the screening assay was used as the negative control. […] The inhibition of cGAS by these hits was further confirmed in the reporter cell line THP1-Lucia ISG (Invivogen) that expresses secreted luciferase induced by an IRF3-inducible ISG54 promoter (Fig. 1c). The discrepancy between the inhibitory effect of the hits in protein and cellular assays may be attributed to their different cellular permeability.
# as §1
smiles,measurement,setting,value
"CC(C)C[C@@H]1NC(=O)[C@H](CCCNC(=N)N)NC(=O)[C@H](C(C)C)NC(=O)[C@@H]2CCCN2C(=O)[C@@H](Cc2ccccc2)NC(=O)[C@H](CC(C)C)NC(=O)[C@H](CCCNC(=N)N)NC(=O)[C@H](C(C)C)NC(=O)[C@H](C)NC(=O)[C@@H](Cc2ccccc2)NC1=O [XQ2, Cyclo (LfAVRLfPVR)] (cyclo(L[dF]AVRL[dF]PVR))","HSV-1 infection of THP1 cells, HSV1(UL5) mRNA",[1]; 10 μM,substantially facilitated HSV-1 infection of THP1 cells
same,"HSV-1(UL5) mRNA, qPCR, Fig. 5d",[1]; HSV-1(1×104)24h,1.256 and 1.311 and 1.284
same,"HSV-1(UL5) mRNA, qPCR, Fig. 5d",[1]; HSV-1(1×104)48h,9.927 and 7.927 and 10.0304
same,"HSV-1(UL5) mRNA, qPCR, Fig. 5d",[1]; HSV-1(2×104)24h,4.976 and 4.739 and 4.656
same,"HSV-1(UL5) mRNA, qPCR, Fig. 5d",[1]; HSV-1(2×104)48h,18.9511 and 21.7278 and 21.8028
same,poly (I: C)-induced IFNB1 expression,"[2]; THP1, 10 μM",did not affect the expression of IFNΒ1 induced by poly (I: C)
same,"IFNB1 mRNA, qPCR, Fig. 2b","[2]; THP1, Poly(I:C), 10 μM",400.477 and 440.107 and 373.524
same,Ifnb1 and Cxcl10 expression induced by ISD and HSV-1,"[3]; RAW264.7, 10 μM",significantly inhibited the expression of Ifnb1 and its downstream gene Cxcl10
same,Cxcl10 mRNA (Fig. S2d),"[3]; RAW264.7, HSV-1+XQ2",226.869 and 260.086 and 204.298
same,Ifnb1 mRNA (Fig. S2d),"[3]; RAW264.7, HSV-1+XQ2",1317.92 and 1543.45 and 1644.53
same,Cxcl10 mRNA (Fig. S2c),"[3]; RAW264.7, ISD+XQ2",1626.72 and 1806.59 and 1855.72
same,Ifnb1 mRNA (Fig. S2c),"[3]; RAW264.7, ISD+XQ2",12350.6 and 12954.9 and 11525.9
same,Cxcl10 mRNA (Fig. S2c),"[3]; RAW264.7, XQ2 alone",3.511 and 3.569 and 3.235
same,Cxcl10 mRNA (Fig. S2d),"[3]; RAW264.7, XQ2 alone",3.511 and 3.569 and 3.235
same,Ifnb1 mRNA (Fig. S2c),"[3]; RAW264.7, XQ2 alone",1.57 and 1.726 and 1.836
same,Ifnb1 mRNA (Fig. S2d),"[3]; RAW264.7, XQ2 alone",1.57 and 1.726 and 1.836
same,CXCL10 mRNA (Fig. S2a),"[4]; ISD, XQ2 0.31 μM",608.071 and 547.477 and 553.882
same,IFNB1 mRNA (Fig. S2a),"[4]; ISD, XQ2 0.31 μM",85.2902 and 89.4127 and 103.445
same,IL6 mRNA (Fig. S2a),"[4]; ISD, XQ2 0.31 μM",53.8661 and 62.1977 and 48.2598
same,CXCL10 mRNA (Fig. S2a),"[4]; ISD, XQ2 0.63 μM",550.9 and 499.514 and 482.522
same,IFNB1 mRNA (Fig. S2a),"[4]; ISD, XQ2 0.63 μM",75.3551 and 77.8155 and 85.6546
same,IL6 mRNA (Fig. S2a),"[4]; ISD, XQ2 0.63 μM",45.9203 and 56.9516 and 44.1827
same,CXCL10 mRNA (Fig. S2a),"[4]; ISD, XQ2 1.25 μM",440.727 and 424.983 and 441.062
same,IFNB1 mRNA (Fig. S2a),"[4]; ISD, XQ2 1.25 μM",54.4915 and 50.1897 and 58.943
same,IL6 mRNA (Fig. S2a),"[4]; ISD, XQ2 1.25 μM",59.6412 and 54.8577 and 42.9996
same,CXCL10 mRNA (Fig. S2a),"[4]; ISD, XQ2 2.5 μM",320.996 and 337.289 and 307.846
same,IFNB1 mRNA (Fig. S2a),"[4]; ISD, XQ2 2.5 μM",46.4673 and 40.8489 and 46.9306
same,IL6 mRNA (Fig. S2a),"[4]; ISD, XQ2 2.5 μM",51.498 and 49.1657 and 30.2376
same,CXCL10 mRNA (Fig. S2a),"[4]; ISD, XQ2 5 μM",341.101 and 357.811 and 355.382
same,IFNB1 mRNA (Fig. S2a),"[4]; ISD, XQ2 5 μM",26.7077 and 29.7394 and 30.8514
same,IL6 mRNA (Fig. S2a),"[4]; ISD, XQ2 5 μM",24.0755 and 29.7141 and 20.0828
same,CXCL10 mRNA (Fig. S2a),"[4]; ISD, XQ2 10 μM",329.162 and 346.227 and 299.128
same,IFNB1 mRNA (Fig. S2a),"[4]; ISD, XQ2 10 μM",10.6974 and 11.3948 and 12.0973
same,IL6 mRNA (Fig. S2a),"[4]; ISD, XQ2 10 μM",18.3875 and 16.237 and 20.2076
same,CXCL10 mRNA (Fig. S2a),"[4]; Mock, XQ2 0.31 μM",0.6255 and 0.7855 and 0.8542
same,IFNB1 mRNA (Fig. S2a),"[4]; Mock, XQ2 0.31 μM",0.7527 and 0.6452 and 0.8722
same,IL6 mRNA (Fig. S2a),"[4]; Mock, XQ2 0.31 μM",0.9875 and 1.125 and 1.458
same,CXCL10 mRNA (Fig. S2a),"[4]; Mock, XQ2 0.63 μM",0.4588 and 0.432 and 0.4044
same,IFNB1 mRNA (Fig. S2a),"[4]; Mock, XQ2 0.63 μM",0.713 and 0.5919 and 0.8053
same,IL6 mRNA (Fig. S2a),"[4]; Mock, XQ2 0.63 μM",1.48 and 1.078 and 1.222
same,CXCL10 mRNA (Fig. S2a),"[4]; Mock, XQ2 1.25 μM",1.308 and 1.359 and 1.615
same,IFNB1 mRNA (Fig. S2a),"[4]; Mock, XQ2 1.25 μM",0.9026 and 1.107 and 1.382
same,CXCL10 mRNA (Fig. S2a),"[4]; Mock, XQ2 2.5 μM",3.137 and 2.991 and 2.833
same,IFNB1 mRNA (Fig. S2a),"[4]; Mock, XQ2 2.5 μM",1.426 and 1.751 and 1.799
same,IL6 mRNA (Fig. S2a),"[4]; Mock, XQ2 2.5 μM",2.387 and 2.459 and 3.439
same,CXCL10 mRNA (Fig. S2a),"[4]; Mock, XQ2 5 μM",1.923 and 2.134 and 2.246
same,IFNB1 mRNA (Fig. S2a),"[4]; Mock, XQ2 5 μM",1.17 and 1.093 and 1.0788
same,CXCL10 mRNA (Fig. S2a),"[4]; Mock, XQ2 10 μM",4.593 and 4.941 and 4.3739
same,IFNB1 mRNA (Fig. S2a),"[4]; Mock, XQ2 10 μM",1.523 and 2.285 and 2.284
same,IL6 mRNA (Fig. S2a),"[4]; Mock, XQ2 10 μM",4.656 and 4.111 and 3.925
same,"dsDNA/ISD-induced IFNB1, CXCL10, IL6 expression",[4]; THP1,"inhibited the expression level of IFNΒ1 and CXCL10, as well as IL6; also recorded: best potency in the cellular assays"
same,"IFNB1 mRNA, qPCR, Fig. 2b","[4]; THP1, ISD",72.2364 and 85.3888 and 75.3743
same,"IFNB1 mRNA, qPCR, Fig. 2b","[4]; THP1, Mock (no stimulus)",1.523 and 2.285 and 2.284
same,"IFNB1 mRNA, qPCR, Fig. 1b","[4]; THP1, dsDNA 6 h, hits 10 μM, replicate values",24.5085 and 22.546 and 27.0371
same,cellular efficacy against cGAS,"[4]; as stated in the rebuttal letter, cellular assays",< 10 µM

# Source: PMC10545747, “Development of cyclopeptide inhibitors of cGAS targeting protein-DNA interaction and phase separation” (Nature Communications, 2023)
